This is an account of results in patent US10189859B2, “Derivatives of 6-(2,3-dichlorophenyl)-1,2,4-triazin-5-amine” (Nektar Therapeutics, priority 2013, dated 2019).

Counter-ions that a name gives are not always drawn.

The nature of the data set: Pharmacokinetics after intravenous or oral dosing, plasma LC/MS/MS. The class given is in vivo. To be noted: fasted male Sprague Dawley rats. As for the experimental part:
Fasted, male Sprague Dawley rats were dosed intravenously or orally. Blood samples were collected at pre-determined time points and plasma was separated. Test article concentrations were determined in plasma by a LC/MS/MS method. Non compartmental analysis was performed to estimate the area under the plasma concentration vs. time curve (AUC). Clearance parameters (CL), bioavailabilities (F) and half-lives were calculated.

`Nc1nc(NCCOCCOCCOC(F)F)nnc1-c1cccc(Cl)c1Cl` [Compound 57, 6-(2,3-Dichlorophenyl)-N^3-(2-(2-(2-(difluoromethoxy)ethoxy)ethoxy)ethyl)-1,2,4-triazine-3,5-diamine]: the “exposure after oral dosing (qualitative ranking)” value (“exposure after oral dosing” for short) is given as “best exposure after oral dosing”.

For `COC(=O)[C@@H]1C[C@@H](O)CN1c1nnc(-c2cccc(Cl)c2Cl)c(N)n1` [Compound 65, (2S,4R)-Methyl 1-(5-amino-6-(2,3-dichlorophenyl)-1,2,4-triazin-3-yl)-4-hydroxypyrrolidine-2-carboxylate], the “pharmacokinetics (qualitative ranking of the compounds tested)” value (“pharmacokinetics” below) was “most favorable pharmacokinetics” and the “exposure after oral dosing” value is reported as “best exposure after oral dosing”.

With `COC[C@@H](O)COC1CN(c2nnc(-c3cccc(Cl)c3Cl)c(N)n2)C1` [Compound 75, (R)-1-((1-(5-Amino-6-(2,3-dichlorophenyl)-1,2,4-triazin-3-yl)azetidin-3-yl)oxy)-3-methoxypropan-2-ol], the “pharmacokinetics” value is on record as “most favorable pharmacokinetics” and the “exposure after oral dosing” value was “best exposure after oral dosing”.

As for `Nc1nc(N2CCN(C[C@@H](O)COCC(F)(F)F)CC2)nnc1-c1cccc(Cl)c1Cl` [Compound 94, (R)-1-(4-(5-amino-6-(2,3-dichlorophenyl)-1,2,4-triazin-3-yl)-piperazin-1-yl)-3-(2,2,2-trifluoroethoxy)-propan-2-ol], the “pharmacokinetics” value is reported as “most favorable pharmacokinetics” and the “exposure after oral dosing” value was “best exposure after oral dosing”.

Turning to `Nc1nc(N2CC(OCC(F)(F)F)C2)nnc1-c1cccc(Cl)c1Cl` [Compound 99, 6-(2,3-dichlorophenyl)-3-(3-(2,2,2-trifluoroethoxy)azetidin-1-yl)-1,2,4-triazin-5-amine.HCl salt], the “exposure after oral dosing” value was “best exposure after oral dosing”.

`C[C@@H]1CN(c2nnc(-c3cccc(Cl)c3Cl)c(N)n2)C[C@H](C)N1` [Compound 118, 3-N-(3′,5′-dimethylpiperazin-1-yl) lamotrigine]: the “exposure after oral dosing” value is reported as “best exposure after oral dosing”.

For `C[C@@H]1CN(c2nnc(-c3cc(F)cc(Cl)c3Cl)c(N)n2)C[C@H](C)N1` [Compound 119, 3-N-(3′,5′-dimethylpiperazin-1-yl) 5′-fluoro lamotrigine], the “exposure after oral dosing” value is “best exposure after oral dosing”.

Turning to `Nc1nc(N2CCN(C3CCOCC3)CC2)nnc1-c1cccc(Cl)c1Cl` [Compound 120, 3-N-(4-(tetrahydro-2H-pyran-4-yl)piperazin-1-yl) lamotrigine di HCl], the “pharmacokinetics” value is “most favorable pharmacokinetics” and the “exposure after oral dosing” value is “best exposure after oral dosing”.

Take `Nc1nc(N2CC(N)C2)nnc1-c1cccc(Cl)c1Cl` [Compound 126, 5-amino-3-N-(3-aminoazetidinyl) lamotrigine diHCl salt]: the “exposure after oral dosing” value is “best exposure after oral dosing”.

Consider `Nc1nc(N2CC(O)C2)nnc1-c1cccc(Cl)c1Cl` [Compound 129, 3-N-(3-hydroxyazetin-1-yl) lamotrigine], for which the “pharmacokinetics” value is “most favorable pharmacokinetics” and the “exposure after oral dosing” value is on record as “best exposure after oral dosing”.

For the compound `Nc1nc(N2CC(O)(C(F)(F)F)C2)nnc1-c1cccc(Cl)c1Cl` [Compound 165, 3-N-(3-hydroxy-3-trifluoromethyl)azetidinyl lamotrigine], the “exposure after oral dosing” value is “best exposure after oral dosing”.

On to `CC(CO)Nc1nnc(-c2cccc(Cl)c2Cl)c(N)n1` (centres unmarked) [Compound 182, 2-((5-amino-6-(2,3-dichlorophenyl)-1,2,4-triazin-3-yl)amino)propan-1-ol], for which the “exposure after oral dosing” value is “best exposure after oral dosing”.
